Test results published in the NIST ThermoML archive (doi:10.1021/je050376y).

Columns and labels:
[1] = 101 kPa, Liquid
[2] = xn = mol fraction of the nth substance listed; conditions: 101 kPa, Liquid

OCCO [1,2-ethanediol]
[1]
Conditions	mass density [kg/m3]	viscosity [mPa·s]
308.15 K	1101.88	11.19
313.15 K	1098.33	9.444
318.15 K	1094.75	7.972
323.15 K	1091.16	6.794
333.15 K	1083.94	5.065
343.15 K	1074.53	3.879
353.15 K	1069.72	3.058

OCCO [1,2-ethanediol] + Cc1ccc(O)cc1
[2], x2 = 0
Conditions	mass density [kg/m3]	viscosity [mPa·s]
308.15 K	1101.88	11.19
313.15 K	1098.33	9.444
318.15 K	1094.75	7.972
323.15 K	1091.16	6.794
333.15 K	1083.94	5.065
343.15 K	1074.53	3.879
353.15 K	1069.72	3.058

Cc1ccc(O)cc1 [4-methylphenol]
[1]
Conditions	mass density [kg/m3]	viscosity [mPa·s]
308.15 K	1021.98	8.444
313.15 K	1018.05	6.745
318.15 K	1014.09	5.471
323.15 K	1010.12	4.532
328.15 K	1006.57	3.888
333.15 K	1002.09	3.245
343.15 K	992.07	2.431
353.15 K	986.24	1.891

Cc1ccc(O)cc1 [4-methylphenol] + CO
[2]
Conditions	mass density, 308.15 K [kg/m3]	mass density, 313.15 K [kg/m3]	mass density, 318.15 K [kg/m3]	mass density, 323.15 K [kg/m3]	mass density, 328.15 K [kg/m3]	viscosity, 308.15 K [mPa·s]	viscosity, 313.15 K [mPa·s]	viscosity, 318.15 K [mPa·s]	viscosity, 323.15 K [mPa·s]	viscosity, 328.15 K [mPa·s]
x1 = 0.1	837.27	832.69	828.09	823.45	819.09	0.701	0.652	0.608	0.568	0.533
x1 = 0.1999	881.21	876.78	872.35	867.89	863.71	0.977	0.901	0.834	0.772	0.719
x1 = 0.2998	914.53	910.25	905.93	901.61	897.58	1.333	1.218	1.112	0.998	0.942
x1 = 0.4	940.54	936.35	932.16	927.93	924.03	1.762	1.588	1.435	1.305	1.192
x1 = 0.4999	961.59	957.48	953.35	949.21	945.39	2.316	2.044	1.817	1.633	1.477
x1 = 0.5999	977.95	973.9	969.84	965.76	962.01	3.021	2.631	2.31	2.043	1.821
x1 = 0.6999	992.04	988.04	984.03	980	976.3	3.928	3.36	2.894	2.527	2.229
x1 = 0.8	1003.53	999.57	995.58	991.58	987.91	5.072	4.251	3.603	3.092	2.688
x1 = 0.8999	1013.73	1009.79	1005.83	1001.84	998.2	6.535	5.364	4.44	3.754	3.212
x1 = 1	1021.98	1018.05	1014.09	1010.12	1006.57	8.444	6.745	5.471	4.532	3.888

CO [methanol]
[1]
Conditions	mass density [kg/m3]	viscosity [mPa·s]
308.15 K	776.92	0.476
313.15 K	772.13	0.445
318.15 K	767.31	0.421
323.15 K	762.46	0.395
328.15 K	757.85	0.372

CO [methanol] + Cc1ccc(O)cc1
[2], x2 = 0
Conditions	mass density [kg/m3]	viscosity [mPa·s]
308.15 K	776.92	0.476
313.15 K	772.13	0.445
318.15 K	767.31	0.421
323.15 K	762.46	0.395
328.15 K	757.85	0.372
